Measurements from US20130251783A1, “LIPOSOMES CONTAINING PERMEATION ENHANCERS FOR ORAL DRUG DELIVERY” (Universitat Heidelberg, priority 2011, published 2013).

Key:
Caco-2 cells [1] = conditions: cited from earlier work
Caco-2 cells [2] = test: LDH release cytotoxicity assay; format: cell-based; conditions: free solution, all concentrations (likely inhibition of the enzymatic reaction)
Procedure: (§1) Caco-2 cells were grown in T-75 flasks in Dulbecco's modified Eagle's medium (DMEM) supplemented with 10% FBS, 1% non-essential amino acids, 1% pyruvate, 1% L-glutamine, 100 U/ml penicillin and 100 μg/ml streptomycin at 37° C. in an atmosphere with 5% CO2 and in equilibrium with distilled water. The medium was changed every other day, and the cells were subcultured at 80% confluency. Cells were used in the experiments described below.
(§2) Cytotoxicity of liposomes and bio-enhancer solutions was investigated using the Alamar Blue® assay (AbD Serotec, Oxford, UK) and by determination of the release of lactate dehydrogenase (LDH) with a test kit (Sigma-Aldrich, Taufkirchen, Germany). […] The formed NADH in turn reduces a tetrazolium salt to a red-coloured product which can be determined photometrically. […]
For the LDH release assay, cells were treated similar as described for the Alamar Blue® cytotoxicity assay with little changes. […] The reaction was stopped by the addition of 10 μl 1N HCl and subsequently, the colour change of the dye was measured by a Tecan microplate absorbance reader (Sunrise, Tecan, Grodig, Austria) at a wavelength of 490 nm and a reference wavelength of 700 nm. To eliminate the influence of the liposomes and the bio-enhancers on the absorbance, a blank was measured of the formulations with a concentration equal to the final assay concentration. […]

rats [3] = conditions: cited from earlier work
rabbits = conditions: cited from earlier work
Caco-2 cells [4] = test: Alamar Blue cytotoxicity assay; format: cell-based
Procedure: as §1, §2
In terms of the Alamar Blue® assay, groups of eight wells were incubated with the solutions of the bio-enhancers in five concentrations (1 μM, 10 μM, 100 μM, 1 mM and 10 mM) and the liposomal formulations in three concentrations (0.5 mM, 5 mM and 50 mM total lipid) in KRB for 2, 4, and 8 h at 37° C. […] After 4 h at 37° C., the colour change of the dye was determined at an excitation wavelength of 530 nm and an emission wavelength of 590 nm in a Fluoroskan Ascent® plate reader. […] Cell viability was expressed as follows: […]

rats [5] = conditions: rats fed daily around 37.7 mg/kg for two years; cited from earlier work

## C[C@H](CCC(=O)N(C)CC(=O)O)[C@H]1CC[C@H]2[C@@H]3[C@H](O)C[C@@H]4C[C@H](O)CC[C@]4(C)[C@H]3C[C@H](O)[C@]12C [CS, cholylsarcosine]
Caco-2 cells [1]
  Cytotoxicity in WST-1 transformation assay: no cytotoxicity

## CCCCCCCCCCCCCCCC[n+]1ccccc1 [CpCl, cetylpyridinium chloride]
Caco-2 cells [2]
  LDH release compared to incubation with KRB: lower as the release after incubation with KRB
Rats [3]
  LD50: 200 mg/kg
rabbits
  LD50: 400 mg/kg
Caco-2 cells [4]; Caco-2 cells
  Toxicity compared among the investigated enhancers: most toxic
Caco-2 cells [4]; free enhancer in KRB, concentration 1 mM
  Cytotoxicity (cell viability): strong cytotoxicity

## CCCCCCCCCCCCCCCCCCN [SA, stearylamine]
Rats [5]
  Side effects: without causing any side effects
